Laboratory results taken from ChEMBL document CHEMBL6071148, “Synthesis and biological evaluation of novel 3,6- amide and thioamide substituted- 2,3,4,9-tetrahydro-1H-carbazoles for anti-cancer activity” (Eur J Med Chem, 2024).
pIC50: −log10 of the molar value.

Tests used:
[1] = system: HL-60; test: Cytotoxicity against human HL-60 cells; type: functional, cell-based
[2] = system: MCF7; test: Cytotoxicity against human MCF7 cells assessed as reduction in cell viability by SRB assay; type: functional, cell-based
[3] = system: HCT-116; test: Cytotoxicity against human HCT-116 cells assessed as reduction in cell viability by SRB assay; type: functional, cell-based
[4] = system: MCF7; test: Cytotoxicity against human MCF7 cells assessed as inhibition of cell proliferation incubated for 72 hrs by MTT assay; type: functional, cell-based; details: MCF7, 72 h
[5] = system: A549; test: Cytotoxicity against human A549 cells assessed as inhibition of cell proliferation incubated for 72 hrs by MTT assay; type: functional, cell-based; details: A549, 72 h
[6] = system: HCT-116; test: Cytotoxicity against human HCT-116 cells assessed as inhibition of cell proliferation incubated for 72 hrs by MTT assay; type: functional, cell-based; details: HCT-116, 72 h
[7] = Cytotoxicity against human MRC5 cells assessed as inhibition of cell proliferation incubated for 72 hrs by MTT assay; type: toxicity, cell-based
[8] = system: Human papillomavirus; test: Antiviral activity against Human papillomavirus; type: functional, organism-based
[9] = target: Acetylcholinesterase (Homo sapiens, UniProt P22303); test: Inhibition of AChE (unknown origin) by Ellman's method
Chain of Acetylcholinesterase (P22303 whole entry): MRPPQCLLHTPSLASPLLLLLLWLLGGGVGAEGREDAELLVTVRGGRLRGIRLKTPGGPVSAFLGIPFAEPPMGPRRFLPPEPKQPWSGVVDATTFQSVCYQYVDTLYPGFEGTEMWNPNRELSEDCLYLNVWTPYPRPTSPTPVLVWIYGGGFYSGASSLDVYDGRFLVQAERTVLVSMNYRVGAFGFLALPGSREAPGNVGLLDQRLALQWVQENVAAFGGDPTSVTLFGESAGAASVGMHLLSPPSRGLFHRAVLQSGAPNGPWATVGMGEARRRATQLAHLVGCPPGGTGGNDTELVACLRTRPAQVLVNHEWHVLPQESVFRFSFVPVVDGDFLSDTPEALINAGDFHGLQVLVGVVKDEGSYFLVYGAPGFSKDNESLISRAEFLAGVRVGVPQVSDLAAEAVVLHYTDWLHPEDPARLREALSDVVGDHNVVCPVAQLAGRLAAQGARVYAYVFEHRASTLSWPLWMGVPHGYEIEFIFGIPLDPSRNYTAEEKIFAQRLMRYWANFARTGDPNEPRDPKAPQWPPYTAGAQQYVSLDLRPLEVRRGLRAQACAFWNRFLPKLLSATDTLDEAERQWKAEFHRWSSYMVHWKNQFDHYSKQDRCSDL

| Structure (SMILES) | pIC50 [4] | pIC50 [5] | pIC50 [6] | IC50 at 72 h [7] [µM] | also measured |
| --- | --- | --- | --- | --- | --- |
| CC[C@]12CCCN3C(=O)C(=O)O[C@@]31c1c([nH]c3ccccc13)CC2 |  |  |  |  | pIC50 [1]: < 4.00 |
| O=C(CSC(=S)N1CCN(c2ccc(Cl)cc2)CC1)n1c2c(c3ccccc31)CCCC2 |  |  |  |  | pIC50 [2]: 5.14; pIC50 [3]: 5.08 |
| CC(=O)Nc1ccc2[nH]c3c(c2c1)CC(NC(=O)c1ccc(C)o1)CC3 (stereo unspecified) | < 4.30 | < 4.30 | < 4.30 | > 50 |  |
| CC(=O)Nc1ccc2[nH]c3c(c2c1)CC(NC(=O)c1ccc(Br)o1)CC3 (stereo unspecified) | < 4.30 | < 4.30 | < 4.30 | > 50 |  |
| O=C(N[C@@H]1CCCc2c1[nH]c1ccc(Cl)cc21)c1ccccn1 |  |  |  |  | pIC50 [8]: 8.30 |
| CCc1ccc(C(=O)NC2CCc3[nH]c4ccc(NC(C)=O)cc4c3C2)o1 (stereo unspecified) | < 4.30 | < 4.30 | < 4.30 | > 50 |  |
| CC(=O)Nc1ccc2[nH]c3c(c2c1)CC(NC(=O)c1ccc(C)s1)CC3 (stereo unspecified) | < 4.30 | < 4.30 | < 4.30 | > 50 |  |
| O=C1[C@H](O)C[C@]23CCCN1[C@@H]2c1c([nH]c2ccccc12)CC3 |  |  |  |  | pIC50 [9]: 4.41 |
